Among the data in patent US9284298B2, “Pyrazolyl-pyrimidine derivatives as kinase inhibitors” (NERVIANO MEDICAL SCIENCES S.R.L., priority 2011, dated 2016) are IC50 values, retold here.

One test has as its target MPS1 (Homo sapiens (Human), UniProt P33981). The test is described as follows: Biochemical assay for inhibitors of MPS1 kinase activity (trans-phosphorylation, Dowex). Conditions: 15 μM ATP, P38-tide substrate. The source says:
Cloning, Expression and Purification of Recombinant MPS1 Full Length Protein.
MPS1 full length (corresponding to residues 2-857 of the full length sequence, see Swiss-Prot accession number P33981) was PCR amplified from the full-length human MPS1 gene present in house as clone pGEX4t_MPS1.
Baculoviruses were generated by cotransfecting Sf9 insect cells with the expression vector and the viral DNA using the BaculoGold® transfection kit (Pharmingen). Viral supernatant was recovered after 5 days and subjected to 3 rounds of amplification to increase viral titer. Recombinant protein was produced by infecting High5 insect cells. After 72 h of infection at 21° C., cells were recovered, pelletted and freezed at −80° C. For purification of recombinant protein, pellet was thawed, resuspended in lysis buffer (PBS, NaCl 150 mM, Glycerol 10%, CHAPS 0.1%, DTT 20 mM, protease and phosphatase inhibitors) and lysed by Gaulin. Lysate was cleared by centrifugation and loaded on a GST affinity column. After extensive wash, recombinant protein was cleaved by a specific protease and eluted by incubation.
To get a fully activated enzyme, the protein was then subjected to auto-phosphorylation in presence of ATP 1 mM at 25° C. for 2 h in kinase buffer (Hepes pH 7.5 50 mM, MgCl2 2.5 mM, MnCl2 1 mM, DTT 1 mM, phosphatase inhibitors); ATP was then removed with a desalting column.
Biochemical Assay for Inhibitors of MPS1 Kinase Activity The inhibitory activity of putative kinase inhibitors and the potency of selected compounds were determined using a trans-phosphorylation assay.
(§1) Specific peptide or protein substrates are trans-phosphorylated by their specific ser-thr or tyr kinase in the presence of ATP traced with ^33P-γ-ATP, and in the presence of their own optimal buffer and cofactors.
(§2) At the end of the phosphorylation reaction, more than 98% unlabeled ATP and radioactive ATP is captured by an excess of the ion exchange dowex resin; the resin then settles down to the bottom of the reaction plate by gravity.
(§3) Supernatant is subsequently withdrawn and transferred into a counting plate, then evaluated by β-counting.
The buffer for MPS1 assay was composed of HEPES 50 mM, at pH 7.5, with 2.5 mM MgCl2, 1 mM MnCl2, 1 mM DTT, 3 μM Na3VO4, 2 mM β-glycerophosphate and 0.2 mg/mL BSA.
The assay was run with a final concentration MPS1 of 5 nM, in the presence of 15 μM ATP and 1.5 nM ^33P-γ-ATP; the substrate was P38-tide, used at 200 μM.
Test compounds are received as a 1 mM solution in 100% DMSO, distributed into 96 or 384 well plates: • a) for percent inhibition studies (HTS), individual dilution plates at 1 mM are diluted at a 3× concentration (30 μM) in ddH2O (3% DMSO=final concentration) using a Beckman NX automated pipetting platform. […]

The target in another test is PIM1 (Homo sapiens (Human), UniProt P11309). Put plainly: Biochemical assay for inhibitors of PIM1 kinase activity (trans-phosphorylation, Dowex). Conditions: 200 μM ATP, Aktide substrate. On the procedure: The short forms and abbreviations used herein have the following meaning: • Ci Curie • DMSO dimethylsulfoxide • KDa kiloDalton • microCi microCurie • mg milligram • microg microgram • ng nanogram • L liter • mL milliliter • μL microliter • M molar • mM millimolar • μM micromolar • nM nanomolar Biochemical Assay for Inhibitors of PIM1 Kinase Activity
The inhibitory activity of putative kinase inhibitors and the potency of selected compounds were determined using a trans-phosphorylation assay.
as §1, §2, §3
The buffer for PIM1 assay was composed of HEPES 50 mM, at pH 7.5, with 10 mM MgCl2, 1 mM DTT, 3 μM NaVO3, and 0.2 mg/mL BSA. […]
Data are analyzed by an internally customized version of the “Assay Explorer” SW package, which provides sigmoidal fitting of the ten-dilution curves for IC50 determination in secondary assay/hit confirmation routines.

The target in the next test is PIM2 (Homo sapiens (Human), UniProt Q9P1W9). Put plainly: PIM2 kinase inhibition assay: Dowex technique. The class given is biochemical. Conditions: 4 μM ATP, Aktide substrate. The procedure:
Method for PIM2 Kinase Inhibition Assay: Dowex Technique
The buffer for PIM2 assay was composed of HEPES 50 mM, at pH 7.5, with 1 mM MgCl2, 1 mM DTT, 3 μM Na3VO4, and 0.2 mg/mL BSA.
Full-length human PIM2 was expressed and purified as described in Fedorov O, et al., PNAS 2007 104, 51, 20523-28.
Enzyme concentration=1.5 nM
Aktide substrate (Chemical Abstract Service Registry Number 324029-01-8)=5 μM
See above: same procedure as described for PIM1.

Structures can show the parent of a compound that is named as a salt.

One may read the IC50 as the midpoint of a concentration-inhibition curve. Lower therefore signals higher potency.

Chain of MPS1 (P33981 2-857): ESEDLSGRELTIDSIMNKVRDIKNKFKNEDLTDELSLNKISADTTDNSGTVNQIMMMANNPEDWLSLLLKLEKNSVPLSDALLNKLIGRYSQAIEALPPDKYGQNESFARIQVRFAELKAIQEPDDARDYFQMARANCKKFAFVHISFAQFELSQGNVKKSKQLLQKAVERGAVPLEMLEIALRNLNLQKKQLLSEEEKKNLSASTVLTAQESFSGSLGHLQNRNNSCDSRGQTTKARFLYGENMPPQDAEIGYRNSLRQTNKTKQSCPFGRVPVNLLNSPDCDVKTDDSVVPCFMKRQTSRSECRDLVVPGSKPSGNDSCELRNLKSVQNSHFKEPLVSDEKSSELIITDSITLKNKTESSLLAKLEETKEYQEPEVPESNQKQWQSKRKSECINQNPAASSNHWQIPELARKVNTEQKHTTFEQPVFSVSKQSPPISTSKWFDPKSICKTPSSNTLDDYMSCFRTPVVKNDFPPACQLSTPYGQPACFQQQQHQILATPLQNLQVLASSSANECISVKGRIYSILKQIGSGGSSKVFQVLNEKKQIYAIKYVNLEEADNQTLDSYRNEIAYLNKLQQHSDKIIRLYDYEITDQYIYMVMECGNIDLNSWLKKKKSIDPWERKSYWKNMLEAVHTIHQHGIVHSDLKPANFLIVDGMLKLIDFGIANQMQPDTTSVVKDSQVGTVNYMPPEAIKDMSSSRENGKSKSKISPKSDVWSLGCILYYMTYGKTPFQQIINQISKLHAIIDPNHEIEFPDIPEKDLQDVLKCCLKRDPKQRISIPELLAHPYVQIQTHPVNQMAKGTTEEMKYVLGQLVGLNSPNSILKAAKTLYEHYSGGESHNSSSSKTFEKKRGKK
Chain of PIM1 (P11309 whole entry): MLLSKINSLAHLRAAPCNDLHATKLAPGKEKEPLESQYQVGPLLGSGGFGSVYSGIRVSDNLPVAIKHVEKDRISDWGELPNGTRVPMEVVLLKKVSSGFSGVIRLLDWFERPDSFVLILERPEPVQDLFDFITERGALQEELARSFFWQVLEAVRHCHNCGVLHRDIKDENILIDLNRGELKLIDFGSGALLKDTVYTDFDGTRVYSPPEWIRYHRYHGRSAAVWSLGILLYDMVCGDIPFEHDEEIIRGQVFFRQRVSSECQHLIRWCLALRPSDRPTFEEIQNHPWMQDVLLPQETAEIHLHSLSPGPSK
Chain of PIM2 (Q9P1W9 whole entry): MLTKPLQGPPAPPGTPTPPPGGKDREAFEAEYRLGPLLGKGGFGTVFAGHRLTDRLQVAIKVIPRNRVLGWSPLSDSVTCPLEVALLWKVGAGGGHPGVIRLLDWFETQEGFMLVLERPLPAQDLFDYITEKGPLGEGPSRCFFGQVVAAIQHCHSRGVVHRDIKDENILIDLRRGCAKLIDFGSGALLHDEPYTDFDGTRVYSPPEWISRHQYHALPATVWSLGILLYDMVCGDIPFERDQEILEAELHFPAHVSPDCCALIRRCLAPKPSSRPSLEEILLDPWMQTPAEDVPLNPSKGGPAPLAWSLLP

As to `CCc1cccc(CC)c1NC(=O)c1cc(-c2ccnc(Nc3ccc(N4CCN(C)CC4)cc3OC)n2)n(C)n1` [Compound 3, N-(2,6-diethylphenyl)-5-(2-{[2-methoxy-4-(4-methylpiperazin-1-yl)phenyl]amino}pyrimidin-4-yl)-1-methyl-1H-pyrazole-3-carboxamide], the IC50 on MPS1 is < 200 nM. `CSc1nccc(-c2cc(C(N)=O)nn2C2CCNCC2)n1` [Compound 21, 5-[2-(methylsulfanyl)pyrimidin-4-yl]-1-(piperidin-4-yl)-1H-pyrazole-3-carboxamide hydrochloride]: the IC50 against PIM1 and against PIM2 was < 10000 nM throughout. `CCc1cccc(CC)c1NC(=O)c1cc(-c2ccnc(Nc3ccc(N4CCN(CCO)CC4)cc3OC)n2)n(C)n1` [Compound 8, N-(2,6-diethylphenyl)-5-[2-({4-[4-(2-hydroxyethyl)piperazin-1-yl]-2-methoxyphenyl}amino)pyrimidin-4-yl]-1-methyl-1H-pyrazole-3-carboxamide]: the IC50 against MPS1 was < 200 nM. With `CCc1cccc(CC)c1NC(=O)c1cc(-c2ccnc(Nc3ccc(N4CCN(C)CC4)cc3OC)n2)[nH]n1` [Compound 11, N-(2,6-diethylphenyl)-5-(2-{[2-methoxy-4-(4-methylpiperazin-1-yl)phenyl]amino}pyrimidin-4-yl)-1H-pyrazole-3-carboxamide], the IC50 at MPS1 was < 200 nM.

For `CCc1cccc(CC)c1NC(=O)c1cc(-c2ccnc(Nc3ccc(N4CCN(CCO)CC4)cc3OC)n2)[nH]n1` [Compound 13, N-(2,6-diethylphenyl)-5-[2-({4-[4-(2-hydroxyethyl)piperazin-1-yl]-2-methoxyphenyl}amino)pyrimidin-4-yl]-1H-pyrazole-3-carboxamide], the concentration for half-maximal inhibition (IC50) against MPS1 was < 200 nM.
